Results taken from the NIST ThermoML archive (doi:10.1016/j.jct.2012.07.022).

Experiment: wn = mass fraction of the nth substance listed
Conditions: 101 kPa, Liquid; for electrical conductivity: Alternating current cell with electrodes; for viscosity: Capillary tube (Ostwald / Ubbelohde) method; for mass density: Vibrating tube method

O=c1cc[nH]c(=O)[nH]1 [2,4(1H,3H)-pyrimidinedione] + CC(=O)[O-].CCn1cc[n+](C)c1
Conditions | electrical conductivity [S/m] | mass density [kg/m3] | viscosity [mPa·s]
298.15 K, w2 = 0 | 0.296 | 1097.6 | 128.5
298.15 K, w2 = 0.0486 | 0.221 | 1111 | 190.6
298.15 K, w2 = 0.1019 | 0.159 | 1125 | 294
298.15 K, w2 = 0.1471 | 0.11 | 1135.7 | 437.6
298.15 K, w2 = 0.2029 | 0.0807 | 1148.6 | 682.8
298.15 K, w2 = 0.2505 | 0.0585 | 1157.9 | 1010
298.15 K, w2 = 0.298 | 0.0388 | 1166.8 | 1589
303.15 K, w2 = 0 | 0.382 | 1094.5 | 95.23
303.15 K, w2 = 0.0486 | 0.293 | 1107.9 | 136.6
303.15 K, w2 = 0.1019 | 0.214 | 1122 | 204
303.15 K, w2 = 0.1471 | 0.156 | 1132.5 | 293.1
303.15 K, w2 = 0.2029 | 0.117 | 1145.2 | 441.4
303.15 K, w2 = 0.2505 | 0.0878 | 1154.6 | 630.8
303.15 K, w2 = 0.298 | 0.0602 | 1163.7 | 952.6
308.15 K, w2 = 0 | 0.48 | 1091.4 | 72.42
308.15 K, w2 = 0.0486 | 0.38 | 1104.9 | 100.9
308.15 K, w2 = 0.1019 | 0.288 | 1118.9 | 146.4
308.15 K, w2 = 0.1471 | 0.212 | 1129.3 | 204.2
308.15 K, w2 = 0.2029 | 0.163 | 1141.9 | 297.8
308.15 K, w2 = 0.2505 | 0.125 | 1151.2 | 413.1
308.15 K, w2 = 0.298 | 0.0892 | 1160.5 | 602.2
313.15 K, w2 = 0 | 0.594 | 1088.4 | 56.38
313.15 K, w2 = 0.0486 | 0.48 | 1101.8 | 76.6
313.15 K, w2 = 0.1019 | 0.372 | 1115.8 | 108.2
313.15 K, w2 = 0.1471 | 0.281 | 1126.2 | 147.1
313.15 K, w2 = 0.2029 | 0.221 | 1138.8 | 208.6
313.15 K, w2 = 0.2505 | 0.173 | 1148 | 281.8
313.15 K, w2 = 0.298 | 0.127 | 1157.1 | 398.2
318.15 K, w2 = 0 | 0.827 | 1085.3 | 44.79
318.15 K, w2 = 0.0486 | 0.592 | 1098.8 | 59.5
318.15 K, w2 = 0.1019 | 0.469 | 1112.8 | 82.2
318.15 K, w2 = 0.1471 | 0.362 | 1123.2 | 109.1
318.15 K, w2 = 0.2029 | 0.29 | 1135.7 | 150.9
318.15 K, w2 = 0.2505 | 0.233 | 1144.8 | 199.2
318.15 K, w2 = 0.298 | 0.176 | 1153.9 | 273.8
323.15 K, w2 = 0 | 0.986 | 1082.3 | 36.23
323.15 K, w2 = 0.0486 | 0.718 | 1095.8 | 47.16
323.15 K, w2 = 0.1019 | 0.579 | 1109.9 | 63.79
323.15 K, w2 = 0.1471 | 0.456 | 1120.2 | 82.98
323.15 K, w2 = 0.2029 | 0.371 | 1132.7 | 112.2
323.15 K, w2 = 0.2505 | 0.304 | 1141.7 | 145.2
323.15 K, w2 = 0.298 | 0.233 | 1150.8 | 194.8
328.15 K, w2 = 0 | – | 1079.3 | 29.78
328.15 K, w2 = 0.0486 | – | 1092.9 | 38.06
328.15 K, w2 = 0.1019 | – | 1106.9 | 50.53
328.15 K, w2 = 0.1471 | – | 1117.1 | 64.55
328.15 K, w2 = 0.2029 | – | 1129.6 | 85.56
328.15 K, w2 = 0.2505 | – | 1138.7 | 108.7
328.15 K, w2 = 0.298 | – | 1147.8 | 142.7
333.15 K, w2 = 0 | – | 1076.2 | 24.82
333.15 K, w2 = 0.0486 | – | 1089.9 | 31.2
333.15 K, w2 = 0.1019 | – | 1103.9 | 40.73
333.15 K, w2 = 0.1471 | – | 1114.1 | 51.22
333.15 K, w2 = 0.2029 | – | 1126.6 | 66.66
333.15 K, w2 = 0.2505 | – | 1135.7 | 83.31
333.15 K, w2 = 0.298 | – | 1144.7 | 107.3
338.15 K, w2 = 0 | – | 1073.3 | 20.95
338.15 K, w2 = 0.0486 | – | 1086.9 | 25.94
338.15 K, w2 = 0.1019 | – | 1100.9 | 33.34
338.15 K, w2 = 0.1471 | – | 1111.1 | 41.34
338.15 K, w2 = 0.2029 | – | 1123.6 | 52.92
338.15 K, w2 = 0.2505 | – | 1132.7 | 65.2
338.15 K, w2 = 0.298 | – | 1141.7 | 82.59
343.15 K, w2 = 0 | – | 1070.3 | 17.88
343.15 K, w2 = 0.0486 | – | 1083.9 | 21.84
343.15 K, w2 = 0.1019 | – | 1097.9 | 27.67
343.15 K, w2 = 0.1471 | – | 1108.1 | 33.87
343.15 K, w2 = 0.2029 | – | 1120.5 | 42.75
343.15 K, w2 = 0.2505 | – | 1129.6 | 51.97
343.15 K, w2 = 0.298 | – | 1138.7 | 64.84

Nc1[nH]cnc2ncnc1-2 [6-amino-1H-purine] + CC(=O)[O-].CCn1cc[n+](C)c1
Conditions | electrical conductivity [S/m] | mass density [kg/m3] | viscosity [mPa·s]
298.15 K, w2 = 0 | 0.296 | 1097.6 | 128.5
298.15 K, w2 = 0.0482 | 0.209 | 1111.1 | 197.7
298.15 K, w2 = 0.1008 | 0.143 | 1124.3 | 318
298.15 K, w2 = 0.1514 | 0.0996 | 1135 | 498.1
298.15 K, w2 = 0.2055 | 0.0672 | 1146.4 | 823.2
298.15 K, w2 = 0.2481 | 0.0471 | 1154.5 | 1235.7
303.15 K, w2 = 0 | 0.382 | 1094.5 | 95.23
303.15 K, w2 = 0.0482 | 0.278 | 1107.9 | 141
303.15 K, w2 = 0.1008 | 0.197 | 1121.1 | 218
303.15 K, w2 = 0.1514 | 0.142 | 1131.7 | 328.1
303.15 K, w2 = 0.2055 | 0.0995 | 1143 | 517.9
303.15 K, w2 = 0.2481 | 0.0718 | 1151.2 | 748.9
308.15 K, w2 = 0 | 0.48 | 1091.4 | 72.42
308.15 K, w2 = 0.0482 | 0.362 | 1104.9 | 103.7
308.15 K, w2 = 0.1008 | 0.264 | 1118 | 154.8
308.15 K, w2 = 0.1514 | 0.196 | 1128.6 | 224.7
308.15 K, w2 = 0.2055 | 0.142 | 1139.8 | 341.2
308.15 K, w2 = 0.2481 | 0.105 | 1147.9 | 477.5
313.15 K, w2 = 0 | 0.594 | 1088.4 | 56.38
313.15 K, w2 = 0.0482 | 0.459 | 1101.9 | 78.37
313.15 K, w2 = 0.1008 | 0.346 | 1114.9 | 113.4
313.15 K, w2 = 0.1514 | 0.262 | 1125.5 | 159.6
313.15 K, w2 = 0.2055 | 0.194 | 1136.6 | 233.9
313.15 K, w2 = 0.2481 | 0.148 | 1144.7 | 318.1
318.15 K, w2 = 0 | 0.827 | 1085.3 | 44.79
318.15 K, w2 = 0.0482 | 0.571 | 1098.8 | 60.64
318.15 K, w2 = 0.1008 | 0.439 | 1111.9 | 85.36
318.15 K, w2 = 0.1514 | 0.34 | 1122.4 | 116.8
318.15 K, w2 = 0.2055 | 0.259 | 1133.5 | 166
318.15 K, w2 = 0.2481 | 0.202 | 1141.6 | 220.1
323.15 K, w2 = 0 | 0.986 | 1082.3 | 36.23
323.15 K, w2 = 0.0482 | 0.695 | 1095.8 | 47.91
323.15 K, w2 = 0.1008 | 0.546 | 1108.9 | 65.78
323.15 K, w2 = 0.1514 | 0.431 | 1119.4 | 87.9
323.15 K, w2 = 0.2055 | 0.336 | 1130.4 | 121.4
323.15 K, w2 = 0.2481 | 0.267 | 1138.5 | 157.4
328.15 K, w2 = 0 | – | 1079.3 | 29.78
328.15 K, w2 = 0.0482 | – | 1092.9 | 38.55
328.15 K, w2 = 0.1008 | – | 1105.9 | 51.75
328.15 K, w2 = 0.1514 | – | 1116.4 | 67.64
328.15 K, w2 = 0.2055 | – | 1127.5 | 91.14
328.15 K, w2 = 0.2481 | – | 1135.4 | 115.9
333.15 K, w2 = 0 | – | 1076.2 | 24.82
333.15 K, w2 = 0.0482 | – | 1089.9 | 31.51
333.15 K, w2 = 0.1008 | – | 1102.9 | 41.48
333.15 K, w2 = 0.1514 | – | 1113.4 | 53.16
333.15 K, w2 = 0.2055 | – | 1124.5 | 70.05
333.15 K, w2 = 0.2481 | – | 1132.5 | 87.5
338.15 K, w2 = 0 | – | 1073.3 | 20.95
338.15 K, w2 = 0.0482 | – | 1086.9 | 26.14
338.15 K, w2 = 0.1008 | – | 1099.9 | 33.78
338.15 K, w2 = 0.1514 | – | 1110.4 | 42.55
338.15 K, w2 = 0.2055 | – | 1121.5 | 54.95
338.15 K, w2 = 0.2481 | – | 1129.5 | 67.57
343.15 K, w2 = 0 | – | 1070.3 | 17.88
343.15 K, w2 = 0.0482 | – | 1083.9 | 21.96
343.15 K, w2 = 0.1008 | – | 1096.9 | 27.91
343.15 K, w2 = 0.1514 | – | 1107.4 | 34.61
343.15 K, w2 = 0.2055 | – | 1118.5 | 43.91
343.15 K, w2 = 0.2481 | – | 1126.4 | 53.21
